Biological target: D2 receptor (Homo sapiens, UniProt P14416)
Test: [3H]Thymidine uptake assay for D2 intrinsic activity
Format: cell-based
Conditions: test compound 1 μM, 1 μM Quinpirole = 100% intrinsic activity
Description: D2 intrinsic activity of title compounds of the Examples, below, was determined using the [^3H]thymidine uptake assay described below.
[^3H]Thymidine Uptake Assay for D2 Intrinsic Activity
Cells are serum deprived by washing twice with 200 μl of serum-free media. 90 μl serum-free media was added to each well. The plates ware incubated for two to three hours. 10 μl of serum-containing media, as a positive control, vehicle (serum-free media), negative control (an antagonist) or test compounds and standards (10 μl of a 10 μM solution for a final concentration of 1 μM) in serum-free media were added to wells. The plates are returned to the incubator. Eighteen hours later [^3H]thymidine is added (0.5 μCi/well in 10 μl of serum-free media) and the plates are returned to the incubator. […] The plates are returned to the incubator, once again. One hour later the assay is terminated by rapid filtration through Whatman GF/C glass fiber filters. Filters are washed four times with 500 ml of 50 mM Tris-HCl pH 7.0 buffer, for example, using a Brandel MLR-96T cell harvester. […] Intrinsic activity is defined as total uptake (1 μM Quinpirole) minus serum-free media (no uptake). Test compounds are compared to 1 μM Quinpirole (full DA agonist), which was classified as 100% intrinsic activity.

D2 receptor, sequence (P14416 whole entry): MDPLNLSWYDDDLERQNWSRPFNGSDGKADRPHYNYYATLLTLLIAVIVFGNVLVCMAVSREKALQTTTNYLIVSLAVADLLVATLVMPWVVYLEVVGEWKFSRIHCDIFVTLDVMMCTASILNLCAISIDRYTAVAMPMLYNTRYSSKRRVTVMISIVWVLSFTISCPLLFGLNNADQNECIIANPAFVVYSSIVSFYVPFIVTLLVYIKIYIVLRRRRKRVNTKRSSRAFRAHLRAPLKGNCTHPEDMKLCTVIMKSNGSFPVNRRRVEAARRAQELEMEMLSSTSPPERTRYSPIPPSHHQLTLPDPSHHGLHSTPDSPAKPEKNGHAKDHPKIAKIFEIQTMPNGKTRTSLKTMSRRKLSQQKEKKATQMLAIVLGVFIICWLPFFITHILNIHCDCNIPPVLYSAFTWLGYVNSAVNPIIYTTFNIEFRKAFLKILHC

Compound	Emax at 1 µM (Table 2) [%]	Emax at 1 µM (Table 1) [%]
COc1ccc2cccc(N3CCN(CCCCOc4ccc5ccc(=O)[nH]c5n4)CC3)c2n1 [Example B30′, 7-{4-[4-(2-Methoxy-quinolin-8-yl)-piperazin-1-yl]-butoxy}-1H-[1,8]naphthyridin-2-one]	42	
O=C1COc2ccc(CCCCCN3CCN(c4cccc5c4CCCC5)CC3)nc2N1 [Example G2, 6-{5-[4-(5,6,7,8-Tetrahydro-naphthalen-1-yl)-piperazin-1-yl]-pentyl}-4H-pyrido[3,2-b][1,4]oxazin-3-one]		6
Cn1ccc2c(N3CCN(CCCCOc4ccc5c(n4)NC(=O)CC5)CC3)cccc21 [Example A26′, 7-{4-[4-(1-Methyl-1H-indol-4-yl)-piperazin-1-yl]-butoxy}-3,4-dihydro-1H-[1,8]naphthyridin-2-one]	12	
Cc1cc(OCCCCN2CCN(c3cccc4c3CCC4)CC2)nc2c1CCC(=O)N2 [Example E12, 7-[4-(4-Indan-4-yl-piperazin-1-yl)-butoxy]-5-methyl-3,4-dihydro-1H-[1,8]naphthyridin-2-one]		39
O=c1ccc2ccc(OCCCCN3CCN(c4cccc5cccc(Cl)c45)CC3)nc2[nH]1 [Example B59, 7-{4-[4-(8-Chloro-naphthalen-1-yl)-piperazin-1-yl]-butoxy}-1H-[1,8]naphthyridin-2-one]		37
O=C1CCc2ccc(OCCCCN3CCN(c4cccc5ncc(F)cc45)CC3)nc2N1 [Example A38′, 7-{4-[4-(3-Fluoro-quinolin-5-yl)-piperazin-1-yl]-butoxy}-3,4-dihydro-1H-[1,8]naphthyridin-2-one]	20	
O=C1CCc2cnc(OCCCCN3CCN(c4cccc(Cl)c4Cl)CC3)c(Br)c2N1 [Example I8, 8-Bromo-7-{4-[4-(2,3-dichloro-phenyl)-piperazin-1-yl]-butoxy}-3,4-dihydro-1H-[1,6]naphthyridin-2-one]		25
O=c1ccc2ccc(OCCCCN3CCN(c4cccc5c(Cl)cccc45)CC3)nc2[nH]1 [Example B58, 7-{4-[4-(5-Chloro-naphthalen-1-yl)-piperazin-1-yl]-butoxy}-1H-[1,8]naphthyridin-2-one]		42
CC1(C)COc2c(cccc2N2CCN(CCCCOc3ccc4ccc(=O)[nH]c4n3)CC2)C1=O [Example B16′, 7-{4-[4-(3,3-Dimethyl-4-oxo-chroman-8-yl)-piperazin-1-yl]-butoxy}-1H-[1,8]naphthyridin-2-one]	4	
O=c1ccc2ccc(OCCCCN3CCN(c4cccc5ncccc45)CC3)nc2[nH]1 [Example B22′, 7-[4-(4-Quinolin-5-yl-piperazin-1-yl)-butoxy]-1H-[1,8]naphthyridin-2-one]	12	
O=C1CCc2ccc(CCCCCN3CCN(c4ccc(F)cc4Cl)CC3)nc2N1 [Example C14, 7-{5-[4-(2-Chloro-4-fluoro-phenyl)-piperazin-1-yl]-pentyl}-3,4-dihydro-1H-[1,8]naphthyridin-2-one]		10
O=C1CCc2ccc(OCCCCN3CCN(c4cccc5c4OCC5)CC3)nc2N1 [Example A2′, 7-{4-[4-(2,3-Dihydro-benzofuran-7-yl)-piperazin-1-yl]-butoxy}-3,4-dihydro-1H-[1,8]naphthyridin-2-one]	21	
O=c1ccc2ccc(OCCCCN3CCN(c4cccc5c4OC4(C=C5)CCCC4)CC3)nc2[nH]1 [Example B6′, 7-{4-[4-(Spiro[chromene-2,1′-cyclopentan]-8-yl)-piperazin-1-yl]-butoxy}-1H-[1,8]naphthyridin-2-one]	33	
COc1ccc2cccc(N3CCN(CCCCOc4ccc5ccc(=O)[nH]c5n4)CC3)c2c1 [Example B60, 7-{4-[4-(7-Methoxy-naphthalen-1-yl)-piperazin-1-yl]-butoxy}-1H-[1,8]naphthyridin-2-one]		28
CC1(C)CCc2cccc(N3CCN(CCCCOc4ncc5ccc(=O)[nH]c5n4)CC3)c2O1 [Example G6′, 2-{4-[4-(2,2-Dimethyl-chroman-8-yl)-piperazin-1-yl]-butoxy}-8H-pyrido[2,3-d]pyrimidin-7-one]	17	
O=C1CCc2ccc(OCCCCN3CCN(c4cccc5c4CCCO5)CC3)nc2N1 [Example A13′, 7-[4-(4-Chroman-5-yl-piperazin-1-yl)-butoxy]-3,4-dihydro-1H-[1,8]naphthyridin-2-one]	14	
CC(C)Oc1ccc(Cl)cc1N1CCN(CCCCOc2ccc3ccc(=O)[nH]c3n2)CC1 [Example B9, 7-{4-[4-(5-Chloro-2-isopropoxy-phenyl)-piperazin-1-yl]-butoxy}-1H-[1,8]naphthyridin-2-one]		23
O=c1ccc2ccc(OCCCCN3CCN(c4cccc5c4CCCO5)CC3)nc2[nH]1 [Example B10′, 7-[4-(4-Chroman-5-yl-piperazin-1-yl)-butoxy]-1H-[1,8]naphthyridin-2-one]	22	
Cc1cccc(N2CCN(CCCCOc3ccc4c(n3)NC(=O)CC4)CC2)n1 [Example A44, 7-{4-[4-(6-Methyl-pyridin-2-yl)-piperazin-1-yl]-butoxy}-3,4-dihydro-1H-[1,8]naphthyridin-2-one]		51

Compound	Emax at 1 µM (Table 2) [%]	Emax at 1 µM (Table 1) [%]
O=C1NCc2ccc(OCCCCN3CCN(c4cccc5c4CCC5)CC3)nc2N1 [Example F3, 7-[4-(4-Indan-4-yl-piperazin-1-yl)-butoxy]-3,4-dihydro-1H-pyrido[2,3-d]pyrimidin-2-one]		15
COc1cccc(N2CCN(CCCCOc3ccc4ccc(=O)[nH]c4n3)CC2)c1C [Example B27, 7-{4-[4-(3-Methoxy-2-methyl-phenyl)-piperazin-1-yl]-butoxy}-1H-[1,8]naphthyridin-2-one]		47
Cc1ccc2cccc(N3CCN(CCCCOc4ccc5c(n4)NC(=O)CC5)CC3)c2n1 [Example A40′, 7-{4-[4-(2-Methyl-quinolin-8-yl)-piperazin-1-yl]-butoxy}-3,4-dihydro-1H-[1,8]naphthyridin-2-one]	30	
O=C1CCc2ccc(OCCCCN3CCN(c4ccc(F)c(Cl)c4Cl)CC3)nc2N1 [Example A8, 7-{4-[4-(2,3-Dichloro-4-fluoro-phenyl)-piperazin-1-yl]-butoxy}-3,4-dihydro-1H-[1,8]naphthyridin-2-one]		7
O=C1CCc2cc(F)c(OCCCCN3CCN(c4cccc5cnccc45)CC3)nc2N1 [Example D2′, 6-Fluoro-7-[4-(4-isoquinolin-5-yl-piperazin-1-yl)-butoxy]-3,4-dihydro-1H-[1,8]naphthyridin-2-one]	40	
Cc1c(Cl)cccc1N1CCN(CCCCOc2ccc3c(n2)NC(=O)CC3(C)C)CC1 [Example D21, 7-{4-[4-(3-Chloro-2-methyl-phenyl)-piperazin-1-yl]-butoxy}-4,4-dimethyl-3,4-dihydro-1H-[1,8]naphthyridin-2-one]		24
O=C1NCc2ccc(OCCCCN3CCN(c4cccc5ccc(F)cc45)CC3)nc2N1 [Example F5, 7-{4-[4-(7-Fluoro-naphthalen-1-yl)-piperazin-1-yl]-butoxy}-3,4-dihydro-1H-pyrido[2,3-d]pyrimidin-2-one]		32
Cc1cc(OCCCCN2CCN(c3cccc(Cl)c3Cl)CC2)nc2c1CCC(=O)N2 [Example E9, 7-{4-[4-(2,3-Dichloro-phenyl)-piperazin-1-yl]-butoxy}-5-methyl-3,4-dihydro-1H-[1,8]naphthyridin-2-one]		34
O=C1CCc2ccc(OCCCCN3CCN(c4cccc5cnccc45)CC3)nc2N1 [Example A37′, 7-[4-(4-Isoquinolin-5-yl-piperazin-1-yl)-butoxy]-3,4-dihydro-1H-[1,8]naphthyridin-2-one]	45	
CC1(C)CCc2cccc(N3CCN(CCCCOc4ccc5c(n4)NC(=O)CC5)CC3)c2O1 [Example A6′, 7-{4-[4-(2,2-Dimethyl-chroman-8-yl)-piperazin-1-yl]-butoxy}-3,4-dihydro-1H-[1,8]naphthyridin-2-one]	42	
O=C1CCc2cccc(N3CCN(CCCCOc4ccc5c(n4)NC(=O)CC5)CC3)c2C1 [Example A56, 7-{4-[4-(7-Oxo-5,6,7,8-tetrahydro-naphthalen-1-yl)-piperazin-1-yl]-butoxy}-3,4-dihydro-1H-[1,8]naphthyridin-2-one]		29
O=C1CCc2ccc(OCCCCN3CCN(c4cccc5c4OCCCO5)CC3)nc2N1 [Example A17′, 7-{4-[4-(3,4-Dihydro-2H-benzo[b][1,4]dioxepin-6-yl)-piperazin-1-yl]-butoxy}-3,4-dihydro-1H-[1,8]naphthyridin-2-one]	15	
O=c1ccc2ccc(OCCCCN3CCN(c4cccc5c4OC(F)(F)O5)CC3)nc2[nH]1 [Example B13′, 7-{4-[4-(2,2-Difluoro-benzo[1,3]dioxol-4-yl)-piperazin-1-yl]-butoxy}-1H-[1,8]naphthyridin-2-one]	33	
CC1(C)C=Cc2cccc(N3CCN(CCCCOc4ccc5ccc(=O)[nH]c5n4)CC3)c2O1 [Example B2′, 7-{4-[4-(2,2-Dimethyl-2H-chromen-8-yl)-piperazin-1-yl]-butoxy}-1H-[1,8]naphthyridin-2-one]	33	
O=C1CCc2ccc(OCCCCN3CCN(c4ccc(F)cc4Cl)CC3)nc2N1 [Example A9, 7-{4-[4-(2-Chloro-4-fluoro-phenyl)-piperazin-1-yl]-butoxy}-3,4-dihydro-1H-[1,8]naphthyridin-2-one]		9
O=c1ccc2ccc(OCCCCN3CCN(c4cccc5c4CCCC5(F)F)CC3)nc2[nH]1 [Example B43, 7-{4-[4-(5,5-Difluoro-5 6,7,8-tetrahydro-naphthalen-1-yl)-piperazin-1-yl]-butoxy}-1H-[1,8]naphthyridin-2-one]		18
O=C1CCc2ccc(OCCCCN3CCN(c4cccc5ccccc45)CC3)nc2N1 [Example A48, 7-[4-(4-Naphthalen-1-yl-piperazin-1-yl)-butoxy]-3,4-dihydro-1H-[1,8]naphthyridin-2-one]		34
O=C1NCc2ccc(OCCCCN3CCN(c4cccc5c4OCC5)CC3)nc2N1 [Example E3′, 7-{4-[4-(2,3-Dihydro-benzofuran-7-yl)-piperazin-1-yl]-butoxy}-3,4-dihydro-1H-pyrido[2,3-d]pyrimidin-2-one]	8	

— patent publication US7160888B2, “[1,8]naphthyridin-2-ones and related compounds for the treatment of schizophrenia” (Warner Lambert Company LLC, priority 2003, dated 2007)
